The experiment deals with A549 cells. In words: inhibition assay with caspase and autophagy inhibitors on cells co-treated with berberine and IR. It is filed as cell-based, human. As for the experimental part:
Berberine has been reported to induce cell death in several cancer cells via mitochondrial disruption (Lin J P, et al. World J Gastroenterol 2006; 12:21-28.). Therefore, mitochondrial membrane potential was next measured with JC-1. Mitochondria membrane potential (Δ Ψm), the lipophilic cationic probe fluorochrome JC-1 (Invitrogen) was used. […] After a treatment of radiation (6 Gy) for 24 h in the absence or presence of 1.0-10 μM berberine, cells were rinsed with DMEM, and JC-1 (5 μmol/L) was loaded. Determination of Δ Ψm was also carried out with a FACScan Flow Cytometer. […] It has been reported that depolarized mitochondria would move into autophagic vacuoles in response to appropriate stimulation; thus, mitochondria dysfunction may be a point of overlap between apoptotic and autophagocytic processes (Bras M, et al. Biochemistry (Mosc) 2005; 70:231-39). […] On the other hand, beclin-1 siRNA and 3-MA (autophagy inhibitor) blocked the cell death induced by 5.0 μM berberine combined with 6 Gy IR (p<0.001). As a consequence, berberine sensitized A549 cells to IR damage via inducing autophagic cell death.

Each structure is given as a SMILES string. Residues, ends and D or L forms follow the SMILES beside them. *: point of attachment. Cbz = O=C(OCc1ccccc1)*; CH2F = FC*

Take `COC(=O)C[C@H](NC(=O)[C@H](C)NC(=O)[C@@H](NC(=O)OCc1ccccc1)C(C)C)C(=O)CF` [z-VAD-fmk] (Cbz-Val-Ala-Asp(OMe)-CH2F): where the note is “A549, berberine and IR co-treatment, p=0.15”, the “effect of inhibitor on cell viability of cells co-treated with berberine and IR” value is on record as “did not significantly affect”.

As to `Cn1cnc(N)c2ncnc1-2` [3-MA, 3-methyladenine], where the note is “A549, 5.0 μM berberine combined with 6 Gy IR, p<0.001”, the “effect of inhibitor on cell death induced by berberine combined with IR” value is reported as “blocked”.
